Test results: article PMC9572860, “Antiprotozoal Activity of Azabicyclo-Nonanes Linked to Tetrazole or Sulfonamide Cores” (Molecules, 2022)
Where two headings read alike, the source gives them in different places.

Assays:
[1] = In vitro cytotoxicity with L-6 cells; type: cell-based, rat
Method: (§1) Compounds were tested for their activities against strains of P. falciparum and T. b. rhodesiense via microplate assays. Their cytotoxicity was determined with rat skeletal myoblasts (L-6 cells). Chloroquine and melarsoprol served as standards (Table 1).
(§2) Assays were performed in 96-well microtiter plates, each well containing 0.1 mL of RPMI 1640 medium supplemented with 1% L-glutamine (200 mM) and 10% fetal bovine serum and 4000 L-6 cells (a primary cell line derived from rat skeletal myoblasts, ATCC CRL-1458™). Serial drug dilutions of 11 three-fold dilution steps covering a range from 100 to 0.002 μg/mL were prepared. After 70 h of incubation, the plates were inspected under an inverted microscope to assure the growth of the controls and sterile conditions. Then, 0.01 mL resazurin solution (resazurin, 12.5 mg in 100 ml double-distilled water) was added to each well and the plates incubated for another 2 h. The plates were read with a Spectramax Gemini XS microplate fluorometer (Molecular Devices Cooperation, Sunnyvale, CA, USA) using an excitation wavelength of 536 nm and an emission wavelength of 588 nm. The IC50 values were calculated by linear regression from the sigmoidal dose inhibition curves using SoftmaxPro software (Molecular Devices Cooperation, Sunnyvale, CA, USA). Podophyllotoxin (Sigma P4405) was used as control.

[2] = system: T. b. rhodesiense STIB 900; experiment: In vitro microplate resazurin assay against T. brucei rhodesiense; type: cell-based, Trypanosoma brucei rhodesiense; conditions: for S.I. = IC50 (Cyt.)/IC50 (T.b.r.): L-6 cytotoxicity over T.b.r.; for IC50: Trypanosoma brucei, STIB 900 bloodstream forms, average of four determinations, read-out: T. Brucei Rhodesiense IC50
Method: as §1
Minimum essential medium (50 µL) supplemented with 25 mM HEPES, 1 g/L additional glucose, 1% MEM nonessential amino acids (100×), 0.2 mM 2-mercaptoethanol, 1 mM Na-pyruvate and 15% heat inactivated horse serum was added to each well of a 96-well microtiter plate. Serial drug dilutions of 11 three-fold dilution steps covering a range from 100 to 0.002 μg/mL were prepared. Then, 4 × 10^3 bloodstream forms of T. b. rhodesiense STIB 900 in 50 µL was added to each well and the plate incubated at 37 °C under a 5% CO2 atmosphere for 70 h. Ten microliters of resazurin solution (resazurin, 12.5 mg in 100 mL double-distilled water) was then added to each well and incubation continued for an additional 2–4 h. The plates were then read with a Spectramax Gemini XS microplate fluorometer (Molecular Devices Cooperation, Sunnyvale, CA, USA) using an excitation wavelength of 536 nm and an emission wavelength of 588 nm. Data were analyzed with the graphic program Softmax Pro (Molecular Devices Cooperation, Sunnyvale, CA, USA), which calculated IC50 values by linear regression and 4-parameter logistic regression from the sigmoidal dose inhibition curves. Melarsoprol (Arsobal Sanofi-Aventis, received from WHO) was used as control.

[3] = system: P. falciparum K1; experiment: In vitro microplate 3H-hypoxanthine incorporation assay against P. falciparum K1; type: cell-based, Plasmodium falciparum; conditions: for S.I. = IC50 (Cyt.)/IC50 (P.f. K1): L-6 cytotoxicity over P.f. K1; for IC50: Plasmodium falciparum
Method: as §1
(§3) In vitro activity against erythrocytic stages of P. falciparum was determined using a ^3H-hypoxanthine incorporation assay, using the drug-sensitive NF54 strain [21] or the chloroquine- and pyrimethamine-resistant K1 strain [22]. Compounds were dissolved in DMSO at 10 mg/mL and added to parasite cultures incubated in RPMI 1640 medium without hypoxanthine, supplemented with HEPES (5.94 g/L), NaHCO3 (2.1 g/L), neomycin (100 U/mL), Albumax (5 g/L) and washed human red cells A+ at 2.5% hematocrit (0.3% parasitemia). Serial drug dilutions of 11 three-fold dilution steps covering a range from 100 to 0.002 µg/mL were prepared. The 96-well plates were incubated in a humidified atmosphere at 37 °C; 4% CO2, 3% O2, 93% N2. After 48 h, 0.05 mL of ^3H-hypoxanthine (=0.5 µCi) was added to each well of the plate. The plates were incubated for an additional 24 h under the same conditions. The plates were then harvested with a Betaplate cell harvester (Wallac, Zurich, Switzerland). The red blood cells were transferred onto a glass fiber filter and washed with distilled water. The dried filters were inserted into a plastic foil with 10 mL of scintillation fluid and counted in a Betaplate liquid scintillation counter (Wallac, Zurich, Switzerland). IC50 values were calculated from sigmoidal inhibition curves by linear regression using Microsoft Excel. Chloroquine (Sigma C6628) was used as control.

[4] = system: P. falciparum NF54; experiment: In vitro microplate 3H-hypoxanthine incorporation assay against P. falciparum NF54; type: cell-based, Plasmodium falciparum
Method: as §1, §3

[5] = system: T. b. rhodesiense STIB 900; design: method as in doi:10.1007/s00706-007-0634-1; conditions: cited from earlier work; for S.I. = IC50 (Cyt.)/IC50 (T.b.r.): L-6 cytotoxicity over T.b.r.; for IC50: read-out: T. Brucei Rhodesiense IC50
[6] = system: L-6 cells; design: method as in doi:10.1007/s00706-007-0634-1; conditions: rat skeletal myoblasts; read-out: Cytotox. L-6 Cells IC50; cited from earlier work
[7] = system: P. falciparum K1; design: method as in doi:10.1007/s00706-007-0634-1; conditions: cited from earlier work; for IC50: K1 strain resistant to chloroquine and pyrimethamine; for S.I. = IC50 (Cyt.)/IC50 (P.f. K1): L-6 cytotoxicity over P.f. K1
[8] = system: L-6 cells; experiment: In vitro cytotoxicity with L-6 cells; type: cell-based, rat; conditions: rat skeletal myoblasts; average of four determinations; read-out: Cytotox. L-6 Cells IC50
Method: as §1, §2

[9] = K1 strain resistant to chloroquine and pyrimethamine, average of four determinations, read-out: P. Falciparum K1 IC50

Compound | IC50 at 72 h ([1]; rat) [nM] | S.I. = IC50 (Cyt.)/IC50 (T.b.r.) [2] | IC50 [2] [nM] | S.I. = IC50 (Cyt.)/IC50 (P.f. K1) [3] | IC50 [3, 9] [nM] | S.I. = IC50 (Cyt.)/IC50 (T.b.r.) [5] | IC50 [5] [nM] | IC50 [6] [nM] | IC50 [7] [nM] | S.I. = IC50 (Cyt.)/IC50 (P.f. K1) [7] | other results
NCCN1CCC2(N3CCCC3)C[C@H](c3ccccc3)C1[C@@H](c1ccccc1)C2 (racemic) [Compound 8, rac-(7R,8R)-2-[7,8-Diphenyl-5-(pyrrolidin-1-yl)-2-azabicyclo[3.2.2]nonan-2-yl]ethan-1-amine] | 25800 | 22.8 | 1130 | 47.8 | 540 | – | – | – | – | – | –
NCCN1CC2[C@H](c3ccccc3)CC(N3CCCC3)(C[C@H]2c2ccccc2)C1 (racemic) [Compound 9, rac-(6R,9R)-2-[6,9-Diphenyl-1-(pyrrolidin-1-yl)-3-azabicyclo[3.2.2]nonan-3-yl]ethan-1-amine] | 9120 | 21.7 | 420 | 14.5 | 630 | – | – | – | – | – | –
CCN(CC)CCCC(C)Nc1ccnc2cc(Cl)ccc12 (centres unmarked) [CQ, chloroquine, reference compound] | – | – | – | 606 | – | – | – | – | – | – | IC50 at 72 h ([1]; rat skeletal myoblasts, average of four determinations, read-out: Cytotox. L-6 Cells IC50): 90900 nM; IC50 ([3]; K1, read-out: P. Falciparum K1 IC50): 150 nM; S.I. = IC50 (Cyt.)/IC50 (P.f. NF54) ([4]; L-6 cytotoxicity over P.f. NF54): 23308; IC50 ([4]; Plasmodium falciparum, NF54, read-out: P. Falciparum NF54 IC50): 3.9 nM
Cc1ccc(S(=O)(=O)N2CCC3(N4CCCCC4)CC(c4ccccc4)C2C(c2ccccc2)C3)cc1 (centres unmarked) [Compound 16] | – | – | – | – | – | 3.96 | 2650 | 10500 | 1260 | 8.33 | –
Cc1ccc(S(=O)(=O)N2CCC3(N4CCCC4)CC(c4ccccc4)C2C(c2ccccc2)C3)cc1 (centres unmarked) [Compound 17] | – | – | – | – | – | 7.48 | 1260 | 9420 | 1300 | 7.25 | –
COc1cc([C@@H]2c3cc4c(cc3[C@H](O)[C@H]3COC(=O)[C@H]23)OCO4)cc(OC)c1OC [POD, podophyllotoxin, reference compound] | – | – | – | – | – | – | – | – | – | – | IC50 [8]: 12 nM
